Source: ChEMBL document CHEMBL4145689, “Tailoring the Substitution Pattern on 1,3,5-Triazine for Targeting Cyclooxygenase-2: Discovery and Structure-Activity Relationship of Triazine-4-Aminophenylmorpholin-3-one Hybrids that Reverse Algesia and Inflammation in Swiss Albino Mice” (J Med Chem, 2018)
Active and inactive are the calls of the source. The rule behind the calls is not given here.

Columns and labels:
Mus musculus [1] = test: Analgesic activity in Swiss albino mouse assessed as inhibition of acetic acid-induced writhings at 10 mg/kg, ip measured 30 mins post acetic acid challenge; type: functional; settings: 0.5 h
[2] = biological target: T1, Prostaglandin G/H synthase 1 (Ovis aries, UniProt P05979); test: Inhibition of ovine COX1 pre-incubated for 10 mins before arachidonic acid addition and measured after 2 mins by EIA method
T1 sequence (P05979 whole entry): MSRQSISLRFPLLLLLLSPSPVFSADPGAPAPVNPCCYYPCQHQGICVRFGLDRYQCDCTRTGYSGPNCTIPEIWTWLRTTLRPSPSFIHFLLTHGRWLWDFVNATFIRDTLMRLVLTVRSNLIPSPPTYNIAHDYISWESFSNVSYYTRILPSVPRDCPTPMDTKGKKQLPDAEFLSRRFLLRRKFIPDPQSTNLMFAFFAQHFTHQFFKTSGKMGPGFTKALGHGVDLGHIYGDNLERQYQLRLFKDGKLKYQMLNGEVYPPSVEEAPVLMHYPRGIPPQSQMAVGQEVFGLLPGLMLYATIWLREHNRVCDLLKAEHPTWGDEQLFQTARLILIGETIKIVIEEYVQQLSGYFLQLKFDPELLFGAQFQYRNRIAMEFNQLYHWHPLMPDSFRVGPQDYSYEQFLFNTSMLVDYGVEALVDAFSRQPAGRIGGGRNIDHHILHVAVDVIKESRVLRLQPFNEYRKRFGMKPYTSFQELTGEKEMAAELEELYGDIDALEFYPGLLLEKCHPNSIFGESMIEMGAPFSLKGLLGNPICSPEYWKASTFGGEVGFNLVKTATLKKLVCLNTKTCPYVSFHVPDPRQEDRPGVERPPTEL

Mus musculus [3] = test: Analgesic activity in Swiss albino mouse assessed as inhibition of acetic acid-induced writhings at 5 mg/kg, ip measured 30 mins post acetic acid challenge; type: functional; settings: 0.5 h
Mus musculus [4] = test: Anti-inflammatory activity in Swiss albino mouse model of carrageenan-induced-paw edema assessed as inhibition of paw edema at 5 mg/kg, ip after 3 hrs; type: functional
[5] = biological target: Prostaglandin G/H synthase 1 (Homo sapiens, UniProt P23219); test: Inhibition of COX1 in human whole blood assessed as A23187-stimulated TxB2 production at 1 uM pre-incubated for 60 mins before A23187 addition and measured after 30 mins by ELISA (reference value: 2 ng/ml); settings: 0.5 h
Prostaglandin G/H synthase 1 (Homo sapiens, UniProt P23219), sequence (P23219 whole entry): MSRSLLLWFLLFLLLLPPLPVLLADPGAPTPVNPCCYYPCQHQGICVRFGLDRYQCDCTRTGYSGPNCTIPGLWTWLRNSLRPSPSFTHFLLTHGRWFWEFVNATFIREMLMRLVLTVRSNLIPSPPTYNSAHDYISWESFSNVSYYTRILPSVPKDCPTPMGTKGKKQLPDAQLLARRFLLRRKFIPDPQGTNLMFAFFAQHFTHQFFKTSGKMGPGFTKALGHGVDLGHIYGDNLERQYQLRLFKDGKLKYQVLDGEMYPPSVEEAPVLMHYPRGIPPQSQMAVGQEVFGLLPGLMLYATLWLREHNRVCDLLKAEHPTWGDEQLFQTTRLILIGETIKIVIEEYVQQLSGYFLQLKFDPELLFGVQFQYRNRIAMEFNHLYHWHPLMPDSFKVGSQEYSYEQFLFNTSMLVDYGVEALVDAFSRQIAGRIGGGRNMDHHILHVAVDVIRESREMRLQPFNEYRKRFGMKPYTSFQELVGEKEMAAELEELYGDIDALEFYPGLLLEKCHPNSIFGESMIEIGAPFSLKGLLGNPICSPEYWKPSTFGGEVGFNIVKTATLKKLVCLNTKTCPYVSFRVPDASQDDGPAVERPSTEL

Mus musculus [6] = test: Analgesic activity in ip dosed Swiss albino mouse assessed as inhibition of acetic acid-induced writhings measured 30 mins post acetic acid challenge; type: functional; settings: 0.5 h
Mus musculus [7] = test: Anti-inflammatory activity in Swiss albino mouse model of carrageenan-induced-paw edema assessed as inhibition of paw edema at 10 mg/kg, ip after 3 hrs; type: functional
Mus musculus [8] = test: Acute toxicity in Swiss albino mouse assessed as induction of mesangium shrinkage at 50 to 2000 mg/kg, po measured over 14 days post dose by H and E staining based microscopy; type: organism-based; settings: in vivo, 336 h
Mus musculus [9] = test: Acute toxicity in Swiss albino mouse assessed as induction of behavioural impairment at 50 to 2000 mg/kg, po measured over 14 days post dose; type: organism-based; settings: in vivo, 336 h
Mus musculus [10] = test: Acute toxicity in Swiss albino mouse assessed as induction of myocardial lesions at 50 to 2000 mg/kg, po measured over 14 days post dose by H and E staining based microscopy; type: organism-based; settings: in vivo, 336 h
[11] = biological target: T2, Polyunsaturated fatty acid 5-lipoxygenase (Homo sapiens, UniProt P09917); test: Inhibition of 5-LOX (unknown origin)
T2 sequence (P09917 whole entry): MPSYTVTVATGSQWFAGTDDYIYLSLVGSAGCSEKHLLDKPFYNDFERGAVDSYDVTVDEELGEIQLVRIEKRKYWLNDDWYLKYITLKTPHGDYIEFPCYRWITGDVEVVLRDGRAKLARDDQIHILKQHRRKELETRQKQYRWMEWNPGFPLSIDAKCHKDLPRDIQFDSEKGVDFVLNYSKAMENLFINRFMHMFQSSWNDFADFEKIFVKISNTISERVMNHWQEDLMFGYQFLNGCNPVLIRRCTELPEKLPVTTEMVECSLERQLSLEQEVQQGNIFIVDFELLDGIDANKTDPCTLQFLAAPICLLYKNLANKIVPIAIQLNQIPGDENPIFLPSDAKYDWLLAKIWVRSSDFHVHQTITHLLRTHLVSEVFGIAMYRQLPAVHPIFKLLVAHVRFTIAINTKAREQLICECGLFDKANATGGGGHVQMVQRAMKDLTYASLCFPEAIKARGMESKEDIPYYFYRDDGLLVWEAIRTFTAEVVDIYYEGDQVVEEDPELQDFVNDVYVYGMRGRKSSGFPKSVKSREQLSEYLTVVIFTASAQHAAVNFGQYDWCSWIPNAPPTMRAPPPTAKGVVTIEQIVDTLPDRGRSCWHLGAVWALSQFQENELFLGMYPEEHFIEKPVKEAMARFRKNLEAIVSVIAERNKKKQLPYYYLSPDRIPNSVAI

Mus musculus [12] = test: Acute toxicity in Swiss albino mouse assessed as induction of congestion in renal tissue at 50 to 2000 mg/kg, po measured over 14 days post dose by H and E staining based microscopy; type: organism-based; settings: in vivo, 336 h
Mus musculus [13] = test: Acute toxicity in Swiss albino mouse assessed as induction of renal lesions at 50 to 2000 mg/kg, po measured over 14 days post dose by H and E staining based microscopy; type: organism-based; settings: in vivo, 336 h
[14] = biological target: T3, Prostaglandin G/H synthase 2 (Homo sapiens) (UniProt P35354)
T3 sequence (whole entry): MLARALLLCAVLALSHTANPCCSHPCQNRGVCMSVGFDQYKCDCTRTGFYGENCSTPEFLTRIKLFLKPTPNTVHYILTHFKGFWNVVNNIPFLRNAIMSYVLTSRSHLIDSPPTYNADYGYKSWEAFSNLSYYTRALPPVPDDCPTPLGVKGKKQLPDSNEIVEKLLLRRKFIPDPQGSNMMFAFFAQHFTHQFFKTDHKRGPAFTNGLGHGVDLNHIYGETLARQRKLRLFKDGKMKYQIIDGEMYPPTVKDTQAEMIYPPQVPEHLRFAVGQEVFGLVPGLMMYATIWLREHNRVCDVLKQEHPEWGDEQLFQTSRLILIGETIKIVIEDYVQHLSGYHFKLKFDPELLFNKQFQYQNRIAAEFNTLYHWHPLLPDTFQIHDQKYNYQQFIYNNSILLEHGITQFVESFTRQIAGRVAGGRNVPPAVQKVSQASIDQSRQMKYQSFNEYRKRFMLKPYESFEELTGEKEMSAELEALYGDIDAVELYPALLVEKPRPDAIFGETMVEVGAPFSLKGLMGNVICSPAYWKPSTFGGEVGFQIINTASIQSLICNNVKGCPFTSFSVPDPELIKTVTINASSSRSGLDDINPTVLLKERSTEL
Description: Binding affinity to human COX2 assessed as binding constant by ITC

Mus musculus [15] = test: Analgesic activity in […] pre-treated Swiss albino mouse assessed as inhibition of acetic acid-induced writhings at 5 mg/kg, ip measured 30 mins post acetic acid challenge; type: functional, organism-based
Mus musculus [16] = test: Analgesic activity in substance P pre-treated Swiss albino mouse assessed as inhibition of acetic acid-induced writhings at 5 mg/kg, ip measured 30 mins post acetic acid challenge; type: functional, organism-based
Mus musculus [17] = test: Acute toxicity in Swiss albino mouse assessed as induction of hepatic lesions at 50 to 2000 mg/kg, po measured over 14 days post dose by H and E staining based microscopy; type: organism-based; settings: in vivo, 336 h
Mus musculus [18] = test: Acute toxicity in Swiss albino mouse assessed as induction of increase in capsular space at 50 to 2000 mg/kg, po measured over 14 days post dose by H and E staining based microscopy; type: organism-based; settings: in vivo, 336 h
Mus musculus [19] = test: Acute toxicity in Swiss albino mouse assessed as induction of mortality at 50 to 2000 mg/kg, po measured over 14 days post dose; type: organism-based; settings: in vivo, 336 h
[20] = biological target: T3, Prostaglandin G/H synthase 2 (Homo sapiens); settings: 10 uM

SMILES | inhibition in vivo at 10 mg/kg (Mus musculus [1]) | IC50 [2] | inhibition in vivo at 5 mg/kg (Mus musculus [3]) | other results
COc1ccc(Nc2nc(Cl)nc(Nc3ccc(N4CCOCC4=O)cc3)n2)cc1 | 79% | > 10 µM | 47% | –
O=C1COCCN1c1ccc(Nc2nc(Nc3ccc(Cl)cc3)nc(N3CCOCC3)n2)cc1 | – | 5 µM | – | –
Cc1ccc(-c2cc(C(F)(F)F)nn2-c2ccc(S(N)(=O)=O)cc2)cc1 [CELECOXIB] | – | – | 62% | inhibition in vivo at 5 mg/kg (Mus musculus [4]): 33%
O=C1COCCN1c1ccc(Nc2nc(Cl)nc(NC3CCCCC3)n2)cc1 | 81% | > 10 µM | 56% | –
O=C(NCCOc1nc(Cl)nc(Nc2ccc(N3CCOCC3=O)cc2)n1)c1ccccc1F | – | > 10 µM | – | –
O=C1COCCN1c1ccc(Nc2nc(Cl)nc(N3CCOCC3)n2)cc1 | – | > 10 µM | – | –
Nc1nc(Cl)nc(Nc2ccc(N3CCOCC3=O)cc2)n1 | 74% | > 10 µM | 67% | Activity [5]: 1.68 ng/mL
O=C1COCCN1c1ccc(Nc2nc(Cl)nc(Nc3ccc(Cl)cc3)n2)cc1 | 90.2% | > 10 µM | 79% | inhibition in vivo at 5 mg/kg (Mus musculus [4]): 28%; Activity [5]: 1.85 ng/mL; ED50 (Mus musculus [6]): 1.9 mg/kg
Cc1ccc(S(=O)(=O)NCCOc2nc(Cl)nc(Nc3ccc(N4CCOCC4=O)cc3)n2)cc1 | – | > 10 µM | – | –
Cc1ccc(Nc2nc(Cl)nc(Nc3ccc(N4CCOCC4=O)cc3)n2)cc1 | – | > 10 µM | – | –
O=C(NCCOc1nc(Cl)nc(Nc2ccc(N3CCOCC3=O)cc2)n1)c1ccc(Cl)s1 | – | > 10 µM | – | –
O=C1COCCN1c1ccc(Nc2nc(Cl)nc(Cl)n2)cc1 | – | > 10 µM | – | –
O=C1COCCN1c1ccc(Nc2nc(Cl)nc(N3CCN(c4ccccc4)CC3)n2)cc1 | – | > 10 µM | – | –
COc1ccc2c(c1)c(CC(=O)O)c(C)n2C(=O)c1ccc(Cl)cc1 [INDOMETHACIN] | 63% | – | – | inhibition in vivo at 10 mg/kg (Mus musculus [7]): 30%
O=C1COCCN1c1ccc(Nc2nc(Cl)nc(OCCCl)n2)cc1 | – | > 10 µM | – | –
O=C1COCCN1c1ccc(Nc2nc(Cl)nc(N3CCCC3)n2)cc1 | 93% | 10 µM | 87% | inhibition in vivo at 5 mg/kg (Mus musculus [4]): 38%; Activity [5]: 1.9 ng/mL; Activity (Mus musculus [8]): Toxic; Activity (Mus musculus [9]): Non-Toxic; Activity (Mus musculus [10]): Non-Toxic; ED50 (Mus musculus [6]): 2.2 mg/kg; IC50 [11]: > 10 µM; Activity (Mus musculus [12]): Toxic; Activity (Mus musculus [13]): Non-Toxic; Ka [14]: 5.37 ×10⁵ /M; inhibition (Mus musculus [15]): Active; Activity (Mus musculus [16]): inactive; Activity (Mus musculus [17]): Non-Toxic; Activity (Mus musculus [18]): Toxic; Activity (Mus musculus [19]): Non-Toxic; Ka [20]: 2.54 ×10⁵ /M
O=C1COCCN1c1ccc(Nc2nc(Cl)nc(Nc3ccc(O)cc3)n2)cc1 | 68% | 10 µM | 56% | Activity [5]: 1.64 ng/mL
O=C1COCCN1c1ccc(Nc2nc(Cl)nc(Nc3ccccc3)n2)cc1 | 83% | > 10 µM | 76% | Activity [5]: 1.7 ng/mL
O=C1COCCN1c1ccc(Nc2nc(Cl)nc(NCc3ccccc3)n2)cc1 | – | > 10 µM | – | –
O=C1COCCN1c1ccc(Nc2nc(Cl)nc(Nc3ccc(Br)cc3)n2)cc1 | – | 50 µM | – | –
O=C(NCCOc1nc(Cl)nc(Nc2ccc(N3CCOCC3=O)cc2)n1)C1CCCN1C(=O)OCc1ccccc1 (configuration not stated) | – | > 10 µM | – | –
NCCOc1nc(Cl)nc(Nc2ccc(N3CCOCC3=O)cc2)n1 | – | > 10 µM | – | –
COC(=O)C(N)Cc1ccc(Oc2nc(Cl)nc(Nc3ccc(N4CCOCC4=O)cc3)n2)cc1 (configuration not stated) | – | > 10 µM | – | –
[N-]=[N+]=NCCOc1nc(Cl)nc(Nc2ccc(N3CCOCC3=O)cc2)n1 | – | > 10 µM | – | –
